IC50 data for 31 molecules are collected here from patent publication US20230391739A1, “ARYL DERIVATIVES FOR TREATING TRPM3 MEDIATED DISORDERS” (Katholieke Universiteit Leuven, priority 2020, published 2023).

pIC50: −log10 of the molar value.

The target in the experiment is T1, mouse TRPM3α2 (mTRPM3) ion channel (Mus musculus, UniProt J9SQF3).
T1 construct: expressed in transfected cells; host or cells: flip-in HEK293
T1 sequence (J9SQF3 1-1709 isoform J9SQF3-12): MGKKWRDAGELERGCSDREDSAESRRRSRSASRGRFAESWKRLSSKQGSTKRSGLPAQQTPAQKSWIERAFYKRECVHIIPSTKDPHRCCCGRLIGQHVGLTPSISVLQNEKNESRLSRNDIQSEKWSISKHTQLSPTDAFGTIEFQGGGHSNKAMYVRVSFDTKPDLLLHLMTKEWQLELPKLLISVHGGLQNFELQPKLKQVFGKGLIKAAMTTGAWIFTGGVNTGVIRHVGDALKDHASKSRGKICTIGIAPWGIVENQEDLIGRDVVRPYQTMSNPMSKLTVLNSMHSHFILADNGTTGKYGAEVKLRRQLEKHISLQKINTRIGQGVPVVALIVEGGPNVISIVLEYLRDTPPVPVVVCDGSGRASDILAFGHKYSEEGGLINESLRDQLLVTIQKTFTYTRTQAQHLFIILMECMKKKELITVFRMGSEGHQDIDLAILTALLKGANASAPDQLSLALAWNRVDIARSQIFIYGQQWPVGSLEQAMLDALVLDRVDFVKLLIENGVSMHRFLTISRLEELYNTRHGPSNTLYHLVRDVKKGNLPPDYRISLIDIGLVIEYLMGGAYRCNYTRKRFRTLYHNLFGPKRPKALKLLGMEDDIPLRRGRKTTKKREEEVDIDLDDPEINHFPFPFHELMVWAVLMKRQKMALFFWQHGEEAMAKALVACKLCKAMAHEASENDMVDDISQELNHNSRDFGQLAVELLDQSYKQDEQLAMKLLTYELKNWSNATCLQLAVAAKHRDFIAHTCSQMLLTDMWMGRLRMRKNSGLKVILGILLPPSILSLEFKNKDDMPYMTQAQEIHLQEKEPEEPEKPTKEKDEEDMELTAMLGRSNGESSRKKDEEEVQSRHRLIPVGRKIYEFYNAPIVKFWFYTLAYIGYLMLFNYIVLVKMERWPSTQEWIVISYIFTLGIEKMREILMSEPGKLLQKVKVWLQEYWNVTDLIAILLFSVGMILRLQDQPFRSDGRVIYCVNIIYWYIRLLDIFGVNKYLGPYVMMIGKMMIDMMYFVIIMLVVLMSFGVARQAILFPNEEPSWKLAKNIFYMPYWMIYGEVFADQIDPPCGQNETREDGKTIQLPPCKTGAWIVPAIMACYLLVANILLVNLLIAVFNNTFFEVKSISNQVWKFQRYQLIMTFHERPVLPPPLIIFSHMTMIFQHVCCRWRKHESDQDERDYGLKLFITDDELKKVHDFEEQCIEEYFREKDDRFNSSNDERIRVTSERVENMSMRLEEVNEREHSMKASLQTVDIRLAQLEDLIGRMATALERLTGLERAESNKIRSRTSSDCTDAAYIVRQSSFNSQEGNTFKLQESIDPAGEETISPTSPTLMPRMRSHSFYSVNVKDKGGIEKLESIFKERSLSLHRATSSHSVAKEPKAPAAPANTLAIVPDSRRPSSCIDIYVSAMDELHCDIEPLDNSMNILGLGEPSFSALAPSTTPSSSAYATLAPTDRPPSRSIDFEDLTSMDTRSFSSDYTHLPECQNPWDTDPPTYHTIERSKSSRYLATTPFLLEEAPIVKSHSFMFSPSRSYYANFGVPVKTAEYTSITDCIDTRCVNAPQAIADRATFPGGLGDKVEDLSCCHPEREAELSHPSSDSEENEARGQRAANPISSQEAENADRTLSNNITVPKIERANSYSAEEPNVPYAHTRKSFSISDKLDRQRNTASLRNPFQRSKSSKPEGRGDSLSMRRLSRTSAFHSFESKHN
The experiment can be described thus: TRPM3 ion channel driven Ca2+ uptake, Fluo-4 AM assay, PS-stimulated (mTRPM3). The format is cell-based. Conditions: TRPM3 overexpressing flip-in HEK293 cells stimulated with Pregnenolone sulfate (PS) 50 μM, activity ranges A, B, C. The essentials: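 Flp-In HEK293 cells overexpressing mTRPM3α2 were added, in Ca²⁺-free Krebs, to wells already holding compound and 50 μM pregnenolone sulfate in Ca²⁺-containing Krebs. Fluo-4 AM fluorescence (ex 485/em 535 nm) was read immediately. Percent inhibition was computed from RFU relative to PS/vehicle wells and a positive-control inhibitor.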
Regarding `Cc1oc2ccc(OCc3ccccc3F)cc2c1C(=O)NC(C)(C)C(N)=O` [Cpd 315, N-(1-amino-2-methyl-1-oxopropan-2-yl)-5-((2-fluorobenzyl)oxy)-2-methylbenzofuran-3-carboxamide], the negative-log IC50 (pIC50) (in general, the negative decadic logarithm of the IC50, by convention in mol/L) is more than 6.00.
The same measure for `Cc1oc2ccc(OCc3ccccc3)cc2c1C(=O)NC1CCN(C)C1` (stereo not shown) [Cpd 076, 5-(benzyloxy)-2-methyl-N-(1-methylpyrrolidin-3-yl)benzofuran-3-carboxamide]: more than 6.00; for `Cc1oc2ccc(OCc3ccccc3)cc2c1C(=O)N[C@@H]1CCNC1=O` [Cpd 070, 5-(benzyloxy)-2-methyl-N-(2-oxopyrrolidin-3-yl)benzofuran-3-carboxamide]: more than 6.00; for `Cc1oc2ccc(OCc3ccccc3)c(F)c2c1C(=O)NC1CNCC1(F)F` (single isomer, unassigned) [Cpd 298-En 1, 5-(benzyloxy)-N-(4,4-difluoropyrrolidin-3-yl)-4-fluoro-2-methylbenzofuran-3-carboxamide]: more than 6.00.
The same measure for `Cc1oc2ccc(OCc3cccc(F)c3)cc2c1C(=O)NC1CCN(C)CC1` [Cpd 168, 5-((3-fluorobenzyl)oxy)-2-methyl-N-(1-methylpiperidin-4-yl)benzofuran-3-carboxamide]: 4.70 to 6.00; for `CCNC(=O)c1c(C)oc2ccc(OCc3ccccc3)cc12` [Cpd 038, 5-(benzyloxy)-N-ethyl-2-methylbenzofuran-3-carboxamide]: 4.70 to 6.00.
The same measure for `Cc1oc2ccc(OCc3ccccc3)cc2c1C(=O)Nc1ccn(C)n1` [Cpd 064, 5-(benzyloxy)-2-methyl-N-(1-methyl-1H-pyrazol-3-yl)benzofuran-3-carboxamide]: more than 6.00; for `Cc1oc2cc(F)c(OCc3ccccc3)cc2c1C(=O)NC1CNCC1(F)F` (single isomer, unassigned) [Cpd 302-En 1, 5-(benzyloxy)-N-(4,4-difluoropyrrolidin-3-yl)-6-fluoro-2-methylbenzofuran-3-carboxamide]: more than 6.00.
Molecule `Cc1oc2ccc(OCc3ccccc3)cc2c1C(=O)NCCCN(C)C` [Cpd 091, 5-(benzyloxy)-N-(3-(dimethylamino)propyl)-2-methylbenzofuran-3-carboxamide] showed a pIC50 of 4.70 to 6.00.
The same measure for `Cc1oc2ccc(OCc3ccccc3)cc2c1C(=O)NS(C)(=O)=O` [Cpd 063, 5-(benzyloxy)-2-methyl-N-(methylsulfonyl)benzofuran-3-carboxamide]: 4.70 to 6.00; for `Cc1oc2ccc(OCc3ccccc3)cc2c1C(=O)NC1CC(CO)(CO)C1` [Cpd 166, 5-(benzyloxy)-N-(3,3-bis(hydroxymethyl)cyclobutyl)-2-methylbenzofuran-3-carboxamide]: more than 6.00.
In turn, `Cc1oc2ccc(OCc3ccccc3F)cc2c1C(=O)NC1(CO)CCOCC1` [Cpd 197, 5-((2-fluorobenzyl)oxy)-N-(4-(hydroxymethyl)tetrahydro-2H-pyran-4-yl)-2-methylbenzofuran-3-carboxamide] gave a negative-log IC50 (pIC50) of more than 6.00.
The molecule `Cc1oc2ccc(OCc3ccccc3)cc2c1C(=O)N1CCOCC1` [Cpd 050, (5-(benzyloxy)-2-methylbenzofuran-3-yl)(morpholino)methanone] showed a negative-log IC50 (pIC50) of less than 4.70.
Turning to `Cc1oc2ccc(OCc3ccccc3F)cc2c1C(=O)NC1(C(N)=O)CC1` [Cpd 326, N-(1-carbamoylcyclopropyl)-5-((2-fluorobenzyl)oxy)-2-methylbenzofuran-3-carboxamide], the pIC50 is more than 6.00.
The same measure for `Cc1oc2ccc(OCc3ccccc3)cc2c1C(=O)N[C@H]1CC[C@H](N)CC1` [Cpd 120, N-(trans-4-aminocyclohexyl)-5-(benzyloxy)-2-methylbenzofuran-3-carboxamide]: 4.70 to 6.00; for `Cc1oc2ccc(OCc3ccc(C(F)(F)F)cc3)cc2c1C(=O)NC1CCN(C)CC1` [Cpd 234, 2-methyl-N-(1-methylpiperidin-4-yl)-5-((4-(trifluoromethyl)benzyl)oxy)benzofuran-3-carboxamide]: 4.70 to 6.00; for `CNC(=O)[C@@H]1C[C@@H](NC(=O)c2c(C)oc3ccc(OCc4ccccc4)cc23)CN1` [Cpd 188, (2S,4R)-4-(5-(benzyloxy)-2-methylbenzofuran-3-carboxamido)-N-methylpyrrolidine-2-carboxamide]: 4.70 to 6.00.
Molecule `Cc1oc2ccc(OCc3cccc(F)c3)cc2c1C(=O)NCC1CCCO1` (stereo not shown) [Cpd 132, 5-((3-fluorobenzyl)oxy)-2-methyl-N-((tetrahydrofuran-2-yl)methyl)benzofuran-3-carboxamide] gave a pIC50 of more than 6.00.
Turning to `Cc1oc2ccc(OCc3ccccc3)cc2c1C(=O)N1CCC(C(=O)OC(C)(C)C)CC1` [Cpd 237, tert-butyl 1-(5-(benzyloxy)-2-methylbenzofuran-3-carbonyl)piperidine-4-carboxylate], the pIC50 was less than 4.70.
With `CCN1CCC(NC(=O)c2c(C)oc3ccc(OCc4ccccc4)cc23)C1=O` (stereo not shown) [Cpd 147, 5-(benzyloxy)-N-(1-ethyl-2-oxopyrrolidin-3-yl)-2-methylbenzofuran-3-carboxamide], the negative-log IC50 (pIC50) was more than 6.00.
The same measure for `Cc1oc2ccc(OCc3ccccc3)cc2c1C(=O)NC1CCCNC1` (stereo not shown) [Cpd 075, 5-(benzyloxy)-2-methyl-N-(piperidin-3-yl)benzofuran-3-carboxamide]: more than 6.00; for `Cc1oc2cc(Cl)c(OCc3ccccc3)cc2c1C(=O)NC1CNCC1(F)F` (single isomer, unassigned) [Cpd 300-En 2, 5-(benzyloxy)-6-chloro-N-(4,4-difluoropyrrolidin-3-yl)-2-methylbenzofuran-3-carboxamide]: less than 4.70; for `Cc1oc2ccc(OCc3ccccc3)cc2c1C(=O)NC1CCN(C2COC2)CC1` [Cpd 208, 5-(benzyloxy)-2-methyl-N-(1-(oxetan-3-yl)piperidin-4-yl)benzofuran-3-carboxamide]: 4.70 to 6.00.
The same measure for `Cc1oc2ccc(OCc3ccccc3)cc2c1C(=O)NC1CCN(C(C)C)CC1` [Cpd 185, 5-(benzyloxy)-N-(1-isopropylpiperidin-4-yl)-2-methylbenzofuran-3-carboxamide]: more than 6.00.
The same measure for `CCCNC(=O)c1c(C)oc2ccc(OCc3ccccc3)cc12` [Cpd 040, 5-(benzyloxy)-2-methyl-N-propylbenzofuran-3-carboxamide]: 4.70 to 6.00.
In turn, `Cc1oc2ccc(OCc3ccccc3)cc2c1C(=O)NC1CCN(C)C(=O)C1` (stereo not shown) [Cpd 146, 5-(benzyloxy)-2-methyl-N-(1-methyl-2-oxopiperidin-4-yl)benzofuran-3-carboxamide] gave a negative-log IC50 (pIC50) of 4.70 to 6.00.
The molecule `COc1ccc(COc2ccc3oc(C)c(C(=O)O)c3c2)cc1` [Cpd 014, 5-((4-methoxybenzyl)oxy)-2-methylbenzofuran-3-carboxylic acid] gave a negative-log IC50 (pIC50) of 4.70 to 6.00.
The same measure for `Cc1oc2cc(C#N)c(OCc3ccccc3)cc2c1C(=O)NC1CNCC1(F)F` (single isomer, unassigned) [Cpd 301-En 1, 5-(benzyloxy)-6-cyano-N-(4,4-difluoropyrrolidin-3-yl)-2-methylbenzofuran-3-carboxamide]: less than 4.70; for `Cc1oc2ccc(OCc3ccccc3F)cc2c1C(=O)NC1(CO)CCOC1` (single isomer, unassigned) [Cpd 327-En 2, 5-((2-fluorobenzyl)oxy)-N-(3-(hydroxymethyl)tetrahydrofuran-3-yl)-2-methylbenzofuran-3-carboxamide]: more than 6.00; for `Cc1oc2ccc(OCc3cccc(F)c3F)cc2c1C(=O)NC1CCNCC1(F)F` (stereo not shown) [Cpd 227, 5-((2,3-difluorobenzyl)oxy)-N-(3,3-difluoropiperidin-4-yl)-2-methylbenzofuran-3-carboxamide]: more than 6.00.
The same measure for `Cc1oc2ccc(OCc3ccccc3COC3CCCCO3)cc2c1C(=O)NC1CCN(C)CC1` (stereo not shown) [Cpd 260, 2-methyl-N-(1-methylpiperidin-4-yl)-5-((2-(((tetrahydro-2H-pyran-2-yl)oxy)methyl)benzyl)oxy)benzofuran-3-carboxamide]: 4.70 to 6.00.
